What all share (assay): Whole-cell binding assay, competition with 125I-GIP1-42
What all share (parameters): acylated tirzepatide to the full-length or modified; Flag; expressed in transfected cells

Assay [1] has as its target T1, GIPR (Homo sapiens, UniProt P48546, D191A/Q138A/R196A).
T1 sequence (P48546 22-466 Q138A/D191A/R196A): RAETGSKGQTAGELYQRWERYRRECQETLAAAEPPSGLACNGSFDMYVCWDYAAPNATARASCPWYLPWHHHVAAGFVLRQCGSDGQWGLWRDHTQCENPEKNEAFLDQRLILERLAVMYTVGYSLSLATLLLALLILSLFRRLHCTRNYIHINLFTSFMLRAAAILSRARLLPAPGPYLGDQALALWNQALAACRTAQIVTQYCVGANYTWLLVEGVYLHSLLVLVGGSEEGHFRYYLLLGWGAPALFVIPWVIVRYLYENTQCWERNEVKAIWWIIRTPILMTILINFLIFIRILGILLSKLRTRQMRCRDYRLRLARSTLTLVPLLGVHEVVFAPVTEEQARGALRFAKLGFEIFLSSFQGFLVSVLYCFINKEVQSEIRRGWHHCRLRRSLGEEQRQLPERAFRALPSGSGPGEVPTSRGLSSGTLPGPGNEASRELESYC
To be noted: GIPR Q138A/D191A/R196A, CHO-K1. The essentials: (§1)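 Transiently transfected CHO-K1 cells expressing WT or mutant GIPR were washed in F-12 with 0.1% BSA or 0.1% casein and 33 mM HEPES, then incubated 2 h at 37 °C. After ice-cold PBS washes, cells were lysed and bound radioactivity counted (CPM).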

For assay [2], the target named is T2, GIPR (Homo sapiens, UniProt P48546, Q285A).
T2 sequence (P48546 22-466 Q285A): T1 sequence (P48546 22-466 Q138A/D191A/R196A) with A117Q, A170D, A175R, Q264A
To be noted: GIPR Q285A, CHO-K1. Summed up:
as §1

For assay [3], the target named is T3, GIPR (Homo sapiens, UniProt P48546, R196A).
T3 sequence (P48546 22-466 R196A): T1 sequence (P48546 22-466 Q138A/D191A/R196A) with A117Q, A170D
To be noted: GIPR R196A, CHO-K1. Summed up:
as §1

The mark [4] stands for this setting: read-out: binding pIC50 (converted).

Positions count from the first letter of the chain named.

Consider `CCCCCCCCCCCCCCCC(=O)N[C@@H](CCC(=O)NCCCC[C@H](NC(=O)[C@H](CC(=O)O)NC(=O)[C@H](CO)NC(=O)[C@@H](NC(=O)[C@H](Cc1ccccc1)NC(=O)[C@@H](NC(=O)CNC(=O)[C@H](CCC(N)=O)NC(=O)C(C)(C)NC(=O)[C@@H](N)Cc1c[nH]cn1)[C@@H](C)O)[C@@H](C)O)C(=O)N[C@@H](CO)C(=O)N[C@@H](CCCCN)C(=O)N[C@@H](Cc1ccc(O)cc1)C(=O)N[C@@H](CC(C)C)C(=O)N[C@@H](CC(=O)O)C(=O)N[C@@H](CCC(=O)O)C(=O)N[C@@H](CCCNC(=N)N)C(=O)N[C@@H](C)C(=O)N[C@@H](C)C(=O)N[C@@H](CCC(N)=O)C(=O)N[C@@H](CC(=O)O)C(=O)N[C@@H](Cc1ccccc1)C(=O)N[C@H](C(=O)N[C@@H](CCC(N)=O)C(=O)N[C@@H](Cc1c[nH]c2ccccc12)C(=O)N[C@@H](CC(C)C)C(=O)N[C@@H](CC(C)C)C(=O)N[C@@H](CC(=O)O)C(=O)NCC(=O)NCC(=O)N1CCC[C@H]1C(=O)N[C@@H](CO)C(=O)N[C@@H](CO)C(=O)NCC(=O)N[C@@H](C)C(=O)N1CCC[C@H]1C(=O)N1CCC[C@H]1C(=O)N1CCC[C@H]1C(=O)N[C@@H](CO)C(N)=O)C(C)C)C(=O)O` [Peptide 20], for which the figures for the “binding Span” value on GIPR [1], at GIPR [2] and on GIPR [3] were 1.03 ± 0.94 % WT, 108.98 ± 3.60 % WT and 71.10 ± 3.42 % WT, respectively. Moreover, the IC50 was 2.4 nM at GIPR [1] (setting [4]), 13.5 nM at GIPR [2] (setting [4]) and 14.5 nM at GIPR [3] (setting [4]).
